Read-outs that look alike come from different tables or passages of the source. Bounds are passed on as bounds.

The target of the experiment is T1, F508delCFTR (Homo sapiens, UniProt P13569, DEL508-508).
T1 construct: expressed in transfected cells; host or cells: CFBE4lo-F508delCFTR-HRP cells (human lung derived epithelial cell line, doxycycline-inducible)
As to the kind of experiment: Cell Surface Expression-Horse Radish Peroxidase (CSE-HRP) Assay. Type of experiment: cell-based. The note with it: for EC50: CFBE4lo-F508delCFTR-HRP cells, 18-24 hours at 33° C.; for Emax / Maximum % activity (with co-corrector): maximum at any tested concentration (up to 20 μM), normalized to on-plate positive control (2 μM co-corrector); for Maximum % activity (with co-corrector): with co-corrector 2 μM. As for the experimental part: Cell Surface Expression-Horse Radish Peroxidase (CSE-HRP) Assay
A cellular assay for measuring the F508delCFTR cell surface expression after correction with test compounds either without or with a co-corrector (2 μM of 3-[(2R,4R)-4-({[1-(2,2-difluoro-1,3-benzodioxol-5-yl)cyclopropyl]carbonyl}amino)-7-methoxy-3,4-dihydro-2H-chromen-2-yl]benzoic acid), was developed in human lung derived epithelial cell line (CFBE4lo−) (Veit G et al, (2012) Mol Biol Cell. 23(21): 4188-4202). The development was achieved by expressing the F508delCFTR mutation along with a horseradish peroxidase (HRP) in the fourth exofacial loop, and then measuring the HRP activity using luminescence readout from these cells, CFBE4lo-F508delCFTR-HRP, that were incubated overnight with the test corrector compounds, either without or with the co-corrector. For this primary assay, the CFBE4lo-F508delCFTR-HRP cells were plated in 384-well plates (Greiner Bio-one; Cat 781080) at 4,000 cells/well along with 0.5 μg/mL doxycycline to induce the F508delCFTR-HRP expression and further incubated at 37° C., 5% CO2 for 72 hours. The test compounds were then added either without or with a co-corrector at the required concentrations and further incubated for 18-24 hours at 33° C. The highest concentration tested was 20 μM with an 8-point concentration response curve using a 3-fold dilution in both the test compound without or with the co-corrector. Three replicate plates were run to determine one EC50. All plates contained negative controls (dimethyl sulfoxide, DMSO) and positive control (2 μM of 3-[(2R,4R)-4-({[1-(2,2-difluoro-1,3-benzodioxol-5-yl)cyclopropyl]carbonyl}amino)-7-methoxy-3,4-dihydro-2H-chromen-2-yl]benzoic acid) as well as on-plate concentration response of the positive control. Post incubation, the plates were washed 5× times with Dulbecco's phosphate buffered saline (DPBS), followed by the addition of the HRP substrate, luminol (50 μL), and measuring the HRP activity using luminescence readout on EnVision® Multilabel Plate Reader (Perkin Elmer; product number 2104-0010). The raw counts from the experiment were analyzed using Accelrys® Assay Explorer v3.3.
Z′ greater than 0.5 was used as passing quality control criteria for the plates.
The Z′ is defined as: 1−[3*SDPositive Control+3*SDNegative Control/Absolute(Meanpostivie Control−MeanNegative Control)] wherein “SD” is standard deviation.
The % activity measured at each of the 8 test concentrations of the test compound added either without or with a co-corrector (2 μM of 3-[(2R,4R)-4-({[1-(2,2-difluoro-1,3-benzodioxol-5-yl)cyclopropyl]carbonyl}amino)-7-methoxy-3,4-dihydro-2H-chromen-2-yl]benzoic acid) was normalized to the on-plate positive control using the following formulae: % activity(Test compound without co-corrector)=[(test compound without co-corrector response−DMSO response)/(positive control response−DMSO response)]*100 % activity(Test compound with co-corrector)=[(test compound with co-corrector response−DMSO response)/(positive control response−DMSO response)]*100
The maximum % activity achieved for the test compound either without or with a co-corrector at any tested concentration is presented in Table 1 along with the respective EC50's calculated using the following general sigmoidal curve with variable Hill slope equation (described as Model 42 in the Accelrys® Assay Explorer v3.3 software): y=(a−d)/(1+(x/c)^b)+d
General sigmoidal curve with concentration, response, top, bottom, EC50 and Hill slope. This model describes a sigmoidal curve with an adjustable baseline, a. The equation can be used to fit curves where response is either increasing or decreasing with respect to the independent variable, “x”.
“x” is a concentration of drug under test.
“a” is the maximum response, and “d” is the minimum response
“c” is the inflection point (EC50) for the curve. That is, “y” is halfway between the lower and upper asymptotes when x=c.
“b” is the slope-factor or Hill coefficient. […]

Where [1] appears, read: test compound without co-corrector, HRP luminescence readout, read-out: EC50 (without co-corrector).
Where [2] appears, read: test compound without co-corrector.
The mark [3] stands for this setting: with co-corrector 2 μM 3-[(2R,4R)-4-({[1-(2,2-difluoro-1,3-benzodioxol-5-yl)cyclopropyl]carbonyl}amino)-7-methoxy-3,4-dihydro-2H-chromen-2-yl]benzoic acid, read-out: EC50 (with co-corrector).

T1 sequence (P13569 with tags, fused parts or gaps DEL508-508): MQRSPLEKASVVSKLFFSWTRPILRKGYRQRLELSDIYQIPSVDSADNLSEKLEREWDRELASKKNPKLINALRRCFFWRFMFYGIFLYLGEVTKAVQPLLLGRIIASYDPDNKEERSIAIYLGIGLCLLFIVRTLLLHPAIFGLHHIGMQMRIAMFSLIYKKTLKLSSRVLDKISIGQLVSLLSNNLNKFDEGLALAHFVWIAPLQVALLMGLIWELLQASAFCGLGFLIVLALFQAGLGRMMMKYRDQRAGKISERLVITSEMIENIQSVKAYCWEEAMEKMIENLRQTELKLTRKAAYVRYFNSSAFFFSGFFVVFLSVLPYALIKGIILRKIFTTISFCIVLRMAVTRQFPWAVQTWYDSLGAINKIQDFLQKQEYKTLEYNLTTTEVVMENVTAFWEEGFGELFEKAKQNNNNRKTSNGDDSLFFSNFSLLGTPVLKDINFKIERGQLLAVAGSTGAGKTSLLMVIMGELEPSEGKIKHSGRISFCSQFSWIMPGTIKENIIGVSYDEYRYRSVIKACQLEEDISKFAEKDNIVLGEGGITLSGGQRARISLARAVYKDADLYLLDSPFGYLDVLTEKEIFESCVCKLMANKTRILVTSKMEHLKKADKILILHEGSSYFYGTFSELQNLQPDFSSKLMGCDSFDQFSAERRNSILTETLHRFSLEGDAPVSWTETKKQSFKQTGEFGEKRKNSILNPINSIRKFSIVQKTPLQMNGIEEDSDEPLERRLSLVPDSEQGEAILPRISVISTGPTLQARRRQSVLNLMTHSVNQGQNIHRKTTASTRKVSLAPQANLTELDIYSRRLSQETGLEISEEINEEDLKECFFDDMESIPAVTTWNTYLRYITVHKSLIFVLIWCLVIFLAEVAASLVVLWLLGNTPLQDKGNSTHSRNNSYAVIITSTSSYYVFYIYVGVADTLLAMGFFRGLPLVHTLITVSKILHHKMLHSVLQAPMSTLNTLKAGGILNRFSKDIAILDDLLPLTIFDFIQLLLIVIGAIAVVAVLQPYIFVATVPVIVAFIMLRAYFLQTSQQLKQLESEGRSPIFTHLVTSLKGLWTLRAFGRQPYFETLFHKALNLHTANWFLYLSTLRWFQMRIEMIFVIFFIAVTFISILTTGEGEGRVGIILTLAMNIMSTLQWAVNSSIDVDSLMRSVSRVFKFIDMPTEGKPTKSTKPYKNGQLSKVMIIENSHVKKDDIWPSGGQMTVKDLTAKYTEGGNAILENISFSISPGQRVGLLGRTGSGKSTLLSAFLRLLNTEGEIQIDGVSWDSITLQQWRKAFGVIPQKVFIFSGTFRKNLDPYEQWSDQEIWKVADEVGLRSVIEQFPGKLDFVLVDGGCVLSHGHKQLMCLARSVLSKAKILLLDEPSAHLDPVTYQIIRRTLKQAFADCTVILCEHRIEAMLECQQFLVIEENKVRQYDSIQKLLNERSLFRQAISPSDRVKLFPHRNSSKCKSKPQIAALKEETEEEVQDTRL

The term EC50 denotes the concentration that produces a half-maximal response. Usually Emax stands for the maximal effect, on the per cent scale that the assay sets. With `O=C(NS(=O)(=O)c1cccc2ccccc12)C1(c2ccccc2)COc2ccccc21` (centres unmarked) [Example 6, N-(naphthalene-1-sulfonyl)-3-phenyl-2,3-dihydro-1-benzofuran-3-carboxamide], the “Maximum % activity (with co-corrector)” value is “+++ (≥350)”. Moreover, the EC50 under setting [1] is under 3 µM. The compound also returned a maximum response (Emax) under setting [2] of 50 to 150%. In addition, under setting [3], the EC50 is under 3 µM.
Turning to `O=C(NS(=O)(=O)c1cccc2ccccc12)C1CCOc2c(Cl)cccc21` (centres unmarked) [Example 7, 8-chloro-N-(naphthalene-1-sulfonyl)-3,4-dihydro-2H-1-benzopyran-4-carboxamide], the “Maximum % activity (with co-corrector)” value was “+++ (≥350)”. Also, the EC50 under setting [1] was 3 to 10 µM. The same compound had an Emax under setting [2] of at least 150%. Further, the EC50 under setting [3] was 3 to 10 µM.
For `CCC1(C(=O)NS(=O)(=O)c2cccc3ccccc23)COc2cccc(OC)c21` (centres unmarked) [Example 8, 3-ethyl-4-methoxy-N-(naphthalene-1-sulfonyl)-2,3-dihydro-1-benzofuran-3-carboxamide], the “Maximum % activity (with co-corrector)” value is given as “+++ (≥350)”. In addition, the 50% effective concentration (EC50) under setting [1] fell in the range of 3 to 10 µM. Under setting [2], this compound gave an Emax of at least 150%. Besides, the EC50 under setting [3] is under 3 µM.
For the compound `COc1cccc2c1C(C(=O)NS(=O)(=O)c1cccc3ccccc13)CCO2` (centres unmarked) [Example 9, 5-methoxy-N-(naphthalene-1-sulfonyl)-3,4-dihydro-2H-1-benzopyran-4-carboxamide], the “Maximum % activity (with co-corrector)” value is given as “+++ (≥350)”. In addition, the EC50 under setting [1] lay within 3 to 10 µM. The same compound had an Emax under setting [2] of at least 150%. Moreover, the EC50 under setting [3] was 3 to 10 µM.
As to `CCC1(C(=O)NS(=O)(=O)c2cccc3ccccc23)CCOc2cccc(OC)c21` (centres unmarked) [Example 10, 4-ethyl-5-methoxy-N-(naphthalene-1-sulfonyl)-3,4-dihydro-2H-1-benzopyran-4-carboxamide], the “Maximum % activity (with co-corrector)” value is given as “+++ (≥350)”. In addition, the EC50 under setting [1] was under 3 µM. For the same compound, the Emax under setting [2] was at least 150%. Further, the EC50 under setting [3] is under 3 µM.
In the case of `COc1ccc(Br)c2c1C(C(=O)NS(=O)(=O)c1cccc3ccccc13)CCO2` (centres unmarked) [Example 11, 8-bromo-5-methoxy-N-(naphthalene-1-sulfonyl)-3,4-dihydro-2H-1-benzopyran-4-carboxamide], the “Maximum % activity (with co-corrector)” value is “+++ (≥350)”. Under setting [1], the EC50 is under 3 µM. The same compound showed an Emax under setting [2] of at least 150%. Further, the half-maximal effective concentration (EC50) under setting [3] was under 3 µM.
In the case of `COc1c(Br)cc(Br)c2c1C(C(=O)NS(=O)(=O)c1cccc3ccccc13)CCO2` (centres unmarked) [Example 12, 6,8-dibromo-5-methoxy-N-(naphthalene-1-sulfonyl)-3,4-dihydro-2H-1-benzopyran-4-carboxamide], the “Maximum % activity (with co-corrector)” value is listed as “+++ (≥350)”. Under setting [1], the EC50 lay within 3 to 10 µM. Under setting [2], this compound displayed an Emax of at least 150%. Besides, the concentration for a half-maximal effect (EC50) under setting [3] was 3 to 10 µM.
With `COc1ccc(C2CCC2)c2c1C(C(=O)NS(=O)(=O)c1cccc3ccccc13)CCO2` (centres unmarked) [Example 13, 8-cyclobutyl-5-methoxy-N-(naphthalene-1-sulfonyl)-3,4-dihydro-2H-1-benzopyran-4-carboxamide], the “Maximum % activity (with co-corrector)” value is on record as “+++ (≥350)”. Under setting [1], the EC50 was under 3 µM. Under setting [2], this compound displayed an Emax of at least 150%. The EC50 under setting [3] was under 3 µM.
As to `COc1ccc(C2CCCC2)c2c1C(C(=O)NS(=O)(=O)c1cccc3ccccc13)CCO2` (centres unmarked) [Example 14, 8-cyclopentyl-5-methoxy-N-(naphthalene-1-sulfonyl)-3,4-dihydro-2H-1-benzopyran-4-carboxamide], the “Maximum % activity (with co-corrector)” value is listed as “+++ (≥350)”. For the same compound, under setting [1], the EC50 was under 3 µM. For the same compound, the Emax under setting [2] is at least 150%. Moreover, the EC50 under setting [3] was under 3 µM.
Regarding `CCC1(C(=O)NS(=O)(=O)c2cccc3ccccc23)COc2c(OC)cccc21` (centres unmarked) [Example 15, 3-ethyl-7-methoxy-N-(naphthalene-1-sulfonyl)-2,3-dihydro-1-benzofuran-3-carboxamide], the “Maximum % activity (with co-corrector)” value is reported as “+++ (≥350)”. The half-maximal effective concentration (EC50) under setting [1] fell in the range of 3 to 10 µM. Under setting [2], this compound gave a maximal response (Emax) of 50 to 150%. Moreover, under setting [3], the EC50 was in the range of 3 to 10 µM.
As for `Cc1ccccc1S(=O)(=O)NC(=O)C1(C)Cc2ccccc2O1` (centres unmarked) [Example 16, 2-methyl-N-(2-methylbenzene-1-sulfonyl)-2,3-dihydro-1-benzofuran-2-carboxamide], the “Maximum % activity (with co-corrector)” value was “+ (<150)”. In addition, the concentration for a half-maximal effect (EC50) under setting [1] is at least 10 µM. The compound also displayed an Emax under setting [2] of under 50%. For the same compound, the EC50 under setting [3] was at least 10 µM.
For the compound `Cc1ccccc1S(=O)(=O)NC(=O)C1Cc2ccccc2O1` (centres unmarked) [Example 17, N-(2-methylbenzene-1-sulfonyl)-2,3-dihydro-1-benzofuran-2-carboxamide], the “Maximum % activity (with co-corrector)” value was “+ (<150)”. In addition, the EC50 under setting [1] is at least 10 µM. The same compound displayed a maximal response (Emax) under setting [2] of under 50%. Further, under setting [3], the 50% effective concentration (EC50) is at least 10 µM.
As to `Cc1ccc2c(c1)C(C(=O)NS(=O)(=O)c1cccc3ccccc13)(c1ccccc1)CCO2` (centres unmarked) [Example 18, 6-methyl-N-(naphthalene-1-sulfonyl)-4-phenyl-3,4-dihydro-2H-1-benzopyran-4-carboxamide], the “Maximum % activity (with co-corrector)” value is given as “+++ (≥350)”. For the same compound, the EC50 under setting [1] lay in the range of 3 to 10 µM. In addition, under setting [2], the Emax lay in the range of 50 to 150%. For the same compound, the EC50 under setting [3] was under 3 µM.
Turning to `O=C(NS(=O)(=O)c1cccc2ccccc12)C1(c2ccccc2)CCOc2ccc(Cl)cc21` (centres unmarked) [Example 19, 6-chloro-N-(naphthalene-1-sulfonyl)-4-phenyl-3,4-dihydro-2H-1-benzopyran-4-carboxamide], the “Maximum % activity (with co-corrector)” value is on record as “+++ (≥350)”. For the same compound, the EC50 under setting [1] fell in the range of 3 to 10 µM. This compound also had an Emax under setting [2] of at least 150%. Besides, the EC50 under setting [3] was 3 to 10 µM.
On to `COc1cccc2c1C(C(=O)NS(=O)(=O)c1cccc3ccccc13)CO2` (centres unmarked) [Example 20, 4-methoxy-N-(naphthalene-1-sulfonyl)-2,3-dihydro-1-benzofuran-3-carboxamide], for which the “Maximum % activity (with co-corrector)” value is “++ (≥150 and <350)”. Further, under setting [1], the EC50 lay within 3 to 10 µM. Besides, under setting [2], the maximal response (Emax) was under 50%. Moreover, the EC50 under setting [3] was under 3 µM.
Regarding `O=C(NS(=O)(=O)c1cccc2ccccc12)C1COc2c(Br)cccc21` (centres unmarked) [Example 21, 7-bromo-N-(naphthalene-1-sulfonyl)-2,3-dihydro-1-benzofuran-3-carboxamide], the “Maximum % activity (with co-corrector)” value was “++ (≥150 and <350)”. Besides, the concentration for a half-maximal effect (EC50) under setting [1] was in the range of 3 to 10 µM. For the same compound, the Emax under setting [2] was 50 to 150%. In addition, the EC50 under setting [3] lay in the range of 3 to 10 µM.
As to `CCC1(C(=O)NS(=O)(=O)c2cccc3ccccc23)COc2c(Br)cccc21` (centres unmarked) [Example 22, 7-bromo-3-ethyl-N-(naphthalene-1-sulfonyl)-2,3-dihydro-1-benzofuran-3-carboxamide], the “Maximum % activity (with co-corrector)” value is recorded as “+++ (≥350)”. Besides, under setting [1], the EC50 lay in the range of 3 to 10 µM. This compound came in with an Emax under setting [2] of at least 150%. Further, the EC50 under setting [3] is 3 to 10 µM.

For the origin of these results see patent US10428017B2, “Modulators of the cystic fibrosis transmembrane conductance regulator protein and methods of use” (AbbVie S.à.r.l., priority 2017, dated 2019).
